The record followed here is patent publication EP0171441A1, “Prostaglandin analogues, processes for their preparation and compositions containing them” (ONO PHARMACEUTICAL CO., LTD., priority 1984, dated 1986).

SMILES strings stand for the structures. ≈ marks a conversion by molar mass, not a printed value.

The assay concerns cells originated from human mouth tumor (KB-cells). Kind of assay: Test on inhibition of proliferation using cells originated from human mouth tumor (KB-cells). The following applies: 96 h, stationary culture at 37°C for 4 days, Trypan Blue staining, surviving cell number relative to control. The assay is classed as cell-based. As to the method: The cells originated from human mouth tumor (KB-cells) were added to Eagle's MEM culture solution containing 10% bovine fetal serum, the number of cells in the culture solution was adjusted to […] cells/ml, a solution in ethanol of the compound of the present invention was added to give a concentration of 5µg/ml or less (3 compounds) and the mixture subjected to stationary culture at 37°C for 4 days. As a control, a culture solution containing 0.1% of ethanol was similarly cultured. After the culture, the cells were
stained by the Trypan Blue staining method, and the surviving cell number was measured to determine the IC50 value from the degree of inhibition relative to the control. Compounds are identified by the Example (described hereinafter) in which they are prepared.
In turn, `CCCCCC=CC=C1C(=O)C=C[C@@H]1C/C=C\CCCCO` [Compound 2, (5Z,14EZ)-11-oxoprosta-5,9,12,14-tetraen-1-ol] yielded an IC50 below 1 µg/mL.

In the case of `CCCCC[C@H](O)/C=C/[C@H]1C(=O)C=C[C@@H]1C/C=C\CCCCOC(N)=O` [Compound 1(c)], inhibition was half-maximal at 1.1 µg/mL (≈ 3.03 µM) (IC50).

`CCCCCC=CC=C1C(=O)C=CC1CC=CCCCCOC(C)=O` (stereo not drawn) [Compound 3, (5Z,14EZ)-1-0-acetyl-11-oxoprosta-5,9,12,14-tetraen-l-ol] displayed an IC50 of 1.6 µg/mL (≈ 4.64 µM).

`CCCCC[C@H](O)/C=C/[C@H]1C(=O)C[C@H](O)[C@@H]1C/C=C\CCCCOC(=O)C=C(C)C` [Compound 1, 1-O-(3,3-dimethylacryloyl)-PGD2 alcohol] had an IC50 of 2.1 µg/mL (≈ 4.99 µM).
